Calls of active or inactive are those of the source.
Legend:
Caspase-7 = Caspase-7 (Homo sapiens, UniProt P55210); assay: human caspase-7 inhibitors, dose response, selectivity assay for caspase-6 inhibitor project, biochemical, DEVD-R110 fluorescence, cherry-pick (AID 743295)
HEK293 [1] = assay: HEK cell cytotoxicity by LDH release, dose response, cytotoxicity control for IDE activator project, fluorescence, HEK cells (AID 588440); format: functional, cell-based; conditions: Homo sapiens;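 note: cytotoxicity by LDH release measuring loss of membrane integrity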
HEK293 [2] = assay: optical interference in Abeta FP readout, dose response, artefact control for IDE activator project, biochemical, fluorescence polarization (AID 588442); format: functional, cell-based; conditions: Homo sapiens
[3] = target: Vascular endothelial growth factor receptor 3 (Homo sapiens, UniProt P35916); format: functional;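 note: value from a kinome-wide profiling panel, with FLT4 as the panel member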
[4] = target: Interleukin-1 receptor-associated kinase 4 (Homo sapiens, UniProt Q9NWZ3); format: functional
[5] = target: Ribosomal protein S6 kinase alpha-3 (Homo sapiens, UniProt P51812); format: functional;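 note: measured within a kinome-wide profiling panel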
[6] = target: Calcium/calmodulin-dependent protein kinase type II subunit delta (Homo sapiens, UniProt Q13557); format: functional
[7] = target: Protein kinase C iota type (Homo sapiens, UniProt P41743); format: functional;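 note: measured within a kinome-wide kinase panel, PRKCI as panel member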
[8] = target: Serine/threonine-protein kinase BRSK1 (Homo sapiens, UniProt Q8TDC3); format: functional;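 note: measured within a kinome-wide kinase panel, with the target listed as KIAA1811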
[9] = target: Mast/stem cell growth factor receptor Kit (Homo sapiens, UniProt P10721); format: functional;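 note: KIT entry within a kinase panel assay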
[10] = target: Ribosomal protein S6 kinase beta-1 (Homo sapiens, UniProt P23443); format: functional;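 note: measured as one member of a kinome-wide profiling panel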
[11] = target: Lymphokine-activated killer T-cell-originated protein kinase (Homo sapiens, UniProt Q96KB5); format: functional;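 note: value comes from a kinase panel screen in which TOPK was one of the panel members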
[12] = target: Protein kinase C gamma type (Homo sapiens, UniProt P05129); format: functional
[13] = target: T1, Sentrin-specific protease 7 (Homo sapiens, UniProt Q9BQF6); format: functional;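 note: Luminescence-based dose-response confirmation of ultra-high-throughput screening hits, measuring inhibition of SENP7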
T1 sequence (Q9BQF6 whole entry): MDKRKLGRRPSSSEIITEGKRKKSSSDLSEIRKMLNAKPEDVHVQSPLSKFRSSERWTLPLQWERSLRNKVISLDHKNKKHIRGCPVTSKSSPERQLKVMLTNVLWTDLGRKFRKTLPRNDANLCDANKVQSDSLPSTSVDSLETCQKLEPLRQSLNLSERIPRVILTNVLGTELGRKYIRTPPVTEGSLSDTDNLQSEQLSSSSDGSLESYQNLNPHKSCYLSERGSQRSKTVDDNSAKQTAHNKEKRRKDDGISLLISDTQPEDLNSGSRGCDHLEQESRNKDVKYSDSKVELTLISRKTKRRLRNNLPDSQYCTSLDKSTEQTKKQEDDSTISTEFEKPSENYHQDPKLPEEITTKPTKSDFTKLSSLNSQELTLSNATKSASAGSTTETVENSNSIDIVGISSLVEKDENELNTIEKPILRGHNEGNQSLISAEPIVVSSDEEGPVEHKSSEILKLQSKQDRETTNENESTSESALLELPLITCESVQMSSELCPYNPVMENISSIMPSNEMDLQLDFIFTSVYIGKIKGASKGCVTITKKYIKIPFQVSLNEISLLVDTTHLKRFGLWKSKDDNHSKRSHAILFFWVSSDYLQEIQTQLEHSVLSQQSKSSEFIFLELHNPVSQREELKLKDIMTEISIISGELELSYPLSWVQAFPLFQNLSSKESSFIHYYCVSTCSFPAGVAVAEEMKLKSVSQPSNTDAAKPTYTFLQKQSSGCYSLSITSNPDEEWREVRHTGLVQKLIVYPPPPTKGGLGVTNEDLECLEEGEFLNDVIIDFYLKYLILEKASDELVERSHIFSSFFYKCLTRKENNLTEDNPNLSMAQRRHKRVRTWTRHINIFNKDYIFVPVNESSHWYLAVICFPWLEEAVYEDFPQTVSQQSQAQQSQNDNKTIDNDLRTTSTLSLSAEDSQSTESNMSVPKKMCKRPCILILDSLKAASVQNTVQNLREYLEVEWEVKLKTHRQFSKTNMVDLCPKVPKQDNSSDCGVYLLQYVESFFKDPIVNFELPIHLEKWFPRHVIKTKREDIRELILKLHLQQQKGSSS

Caspase-3 = target: T2, Caspase-3 (Homo sapiens, UniProt P42574); format: functional;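 note: Dose-response selectivity test against caspase-3 for candidate inhibitors of sentrin-specific proteases (SENPs)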
T2 sequence (P42574 whole entry): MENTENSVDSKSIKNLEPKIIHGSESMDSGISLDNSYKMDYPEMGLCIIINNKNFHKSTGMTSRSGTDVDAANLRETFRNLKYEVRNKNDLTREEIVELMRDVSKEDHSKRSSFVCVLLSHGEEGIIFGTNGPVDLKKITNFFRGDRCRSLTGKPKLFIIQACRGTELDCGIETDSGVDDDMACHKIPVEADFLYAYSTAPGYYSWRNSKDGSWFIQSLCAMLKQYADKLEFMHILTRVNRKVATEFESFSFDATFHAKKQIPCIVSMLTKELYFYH

[14] = target: Platelet-derived growth factor receptor beta (Homo sapiens, UniProt P09619); format: functional;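 note: value comes from a kinome panel, with PDGFRB tested as one panel member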
[15] = target: Leucine-rich repeat serine/threonine-protein kinase 2 (Homo sapiens, UniProt Q5S007); format: functional;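 note: value from a broad kinome-wide panel profiling study in which LRRK2 was one of the kinases tested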
LIM domain kinase 1 = LIM domain kinase 1 (Homo sapiens, UniProt P53667); assay: Navigating the Kinome. Panel member name: LIMK1; format: functional
[16] = target: Inhibitor of nuclear factor kappa-B kinase subunit epsilon (Homo sapiens, UniProt Q14164); assay: Navigating the Kinome. Panel member name: IKBKE; format: functional

Calcium/calmodulin-dependent protein kinase type II subunit delta, sequence (Q13557 whole entry): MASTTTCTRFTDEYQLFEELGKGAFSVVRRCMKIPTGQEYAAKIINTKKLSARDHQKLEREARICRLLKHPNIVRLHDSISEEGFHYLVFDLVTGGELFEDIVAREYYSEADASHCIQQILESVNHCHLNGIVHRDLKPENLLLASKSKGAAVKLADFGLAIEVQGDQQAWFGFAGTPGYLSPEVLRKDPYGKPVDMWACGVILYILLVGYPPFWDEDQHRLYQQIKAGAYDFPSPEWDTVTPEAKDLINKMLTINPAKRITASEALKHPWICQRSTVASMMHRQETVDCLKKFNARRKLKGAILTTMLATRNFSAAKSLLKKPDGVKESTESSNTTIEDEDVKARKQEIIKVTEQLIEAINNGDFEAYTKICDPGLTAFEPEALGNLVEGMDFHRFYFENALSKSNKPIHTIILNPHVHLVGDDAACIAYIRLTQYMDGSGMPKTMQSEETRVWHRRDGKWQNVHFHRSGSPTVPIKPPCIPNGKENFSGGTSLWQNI
Ribosomal protein S6 kinase beta-1, sequence (P23443 whole entry): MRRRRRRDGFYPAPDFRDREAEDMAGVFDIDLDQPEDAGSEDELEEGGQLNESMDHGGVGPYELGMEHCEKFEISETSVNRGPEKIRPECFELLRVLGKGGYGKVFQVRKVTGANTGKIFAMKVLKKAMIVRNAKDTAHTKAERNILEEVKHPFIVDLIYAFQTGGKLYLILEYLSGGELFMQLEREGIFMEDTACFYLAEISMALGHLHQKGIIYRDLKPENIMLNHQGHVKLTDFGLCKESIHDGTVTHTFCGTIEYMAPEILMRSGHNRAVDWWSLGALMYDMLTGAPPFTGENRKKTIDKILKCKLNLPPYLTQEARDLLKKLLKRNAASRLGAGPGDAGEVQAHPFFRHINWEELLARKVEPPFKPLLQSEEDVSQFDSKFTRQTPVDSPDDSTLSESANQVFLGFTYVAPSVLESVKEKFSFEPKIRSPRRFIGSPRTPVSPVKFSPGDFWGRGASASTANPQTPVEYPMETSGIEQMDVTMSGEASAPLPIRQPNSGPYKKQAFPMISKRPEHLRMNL
Protein kinase C iota type, sequence (P41743 whole entry): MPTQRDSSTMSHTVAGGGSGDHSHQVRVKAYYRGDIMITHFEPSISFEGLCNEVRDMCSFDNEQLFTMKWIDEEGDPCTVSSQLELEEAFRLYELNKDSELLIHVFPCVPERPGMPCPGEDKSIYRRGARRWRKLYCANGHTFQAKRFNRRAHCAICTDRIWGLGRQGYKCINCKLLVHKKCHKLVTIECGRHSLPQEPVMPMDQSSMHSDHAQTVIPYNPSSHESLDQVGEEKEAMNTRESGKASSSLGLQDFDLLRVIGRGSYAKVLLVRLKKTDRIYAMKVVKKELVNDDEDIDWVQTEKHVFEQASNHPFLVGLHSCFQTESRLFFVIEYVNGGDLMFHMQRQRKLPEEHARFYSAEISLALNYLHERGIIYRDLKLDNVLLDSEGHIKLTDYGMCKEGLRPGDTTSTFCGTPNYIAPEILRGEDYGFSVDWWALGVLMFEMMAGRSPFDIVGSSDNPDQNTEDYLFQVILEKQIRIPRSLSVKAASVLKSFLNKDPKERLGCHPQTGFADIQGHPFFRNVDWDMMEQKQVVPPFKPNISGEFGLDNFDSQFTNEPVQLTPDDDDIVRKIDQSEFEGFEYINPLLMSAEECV
Serine/threonine-protein kinase BRSK1, sequence (Q8TDC3 whole entry): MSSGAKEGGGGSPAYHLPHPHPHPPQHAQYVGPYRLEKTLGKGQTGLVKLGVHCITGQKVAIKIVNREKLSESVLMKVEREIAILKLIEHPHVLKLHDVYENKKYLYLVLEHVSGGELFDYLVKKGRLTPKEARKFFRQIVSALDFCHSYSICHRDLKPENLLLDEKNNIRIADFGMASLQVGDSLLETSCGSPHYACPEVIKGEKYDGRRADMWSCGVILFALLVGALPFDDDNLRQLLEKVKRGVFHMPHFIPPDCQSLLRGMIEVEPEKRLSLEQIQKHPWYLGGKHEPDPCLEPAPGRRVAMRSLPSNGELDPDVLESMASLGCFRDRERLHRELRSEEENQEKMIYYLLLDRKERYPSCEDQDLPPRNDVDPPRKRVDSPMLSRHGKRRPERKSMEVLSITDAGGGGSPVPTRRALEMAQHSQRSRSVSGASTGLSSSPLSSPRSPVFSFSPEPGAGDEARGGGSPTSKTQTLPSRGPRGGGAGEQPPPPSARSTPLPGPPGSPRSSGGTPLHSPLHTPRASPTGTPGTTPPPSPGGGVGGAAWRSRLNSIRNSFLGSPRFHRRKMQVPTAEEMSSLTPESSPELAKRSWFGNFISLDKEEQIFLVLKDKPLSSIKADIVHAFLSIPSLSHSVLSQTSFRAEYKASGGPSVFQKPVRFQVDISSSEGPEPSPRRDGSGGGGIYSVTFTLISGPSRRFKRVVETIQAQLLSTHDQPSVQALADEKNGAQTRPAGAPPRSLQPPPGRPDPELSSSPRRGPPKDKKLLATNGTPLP
Ribosomal protein S6 kinase alpha-3, sequence (P51812 whole entry): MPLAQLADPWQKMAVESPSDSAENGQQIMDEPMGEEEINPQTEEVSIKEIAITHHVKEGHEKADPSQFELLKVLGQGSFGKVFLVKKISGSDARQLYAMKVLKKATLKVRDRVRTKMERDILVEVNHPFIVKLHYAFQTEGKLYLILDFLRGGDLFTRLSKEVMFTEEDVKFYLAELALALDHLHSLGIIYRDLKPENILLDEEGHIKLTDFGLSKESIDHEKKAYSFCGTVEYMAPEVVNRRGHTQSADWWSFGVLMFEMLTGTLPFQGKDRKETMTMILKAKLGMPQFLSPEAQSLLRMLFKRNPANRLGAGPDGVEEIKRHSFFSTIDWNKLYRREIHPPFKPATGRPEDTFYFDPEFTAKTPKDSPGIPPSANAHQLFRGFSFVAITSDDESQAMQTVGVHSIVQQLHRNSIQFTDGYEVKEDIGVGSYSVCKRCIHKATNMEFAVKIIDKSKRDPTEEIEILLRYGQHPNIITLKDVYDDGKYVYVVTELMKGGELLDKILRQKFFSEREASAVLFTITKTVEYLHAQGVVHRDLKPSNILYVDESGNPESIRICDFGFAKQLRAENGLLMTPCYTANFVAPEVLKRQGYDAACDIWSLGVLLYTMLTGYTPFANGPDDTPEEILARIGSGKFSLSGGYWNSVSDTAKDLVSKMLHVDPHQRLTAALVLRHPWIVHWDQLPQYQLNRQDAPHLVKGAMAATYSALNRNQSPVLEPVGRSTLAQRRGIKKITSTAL
Interleukin-1 receptor-associated kinase 4, sequence (Q9NWZ3 whole entry): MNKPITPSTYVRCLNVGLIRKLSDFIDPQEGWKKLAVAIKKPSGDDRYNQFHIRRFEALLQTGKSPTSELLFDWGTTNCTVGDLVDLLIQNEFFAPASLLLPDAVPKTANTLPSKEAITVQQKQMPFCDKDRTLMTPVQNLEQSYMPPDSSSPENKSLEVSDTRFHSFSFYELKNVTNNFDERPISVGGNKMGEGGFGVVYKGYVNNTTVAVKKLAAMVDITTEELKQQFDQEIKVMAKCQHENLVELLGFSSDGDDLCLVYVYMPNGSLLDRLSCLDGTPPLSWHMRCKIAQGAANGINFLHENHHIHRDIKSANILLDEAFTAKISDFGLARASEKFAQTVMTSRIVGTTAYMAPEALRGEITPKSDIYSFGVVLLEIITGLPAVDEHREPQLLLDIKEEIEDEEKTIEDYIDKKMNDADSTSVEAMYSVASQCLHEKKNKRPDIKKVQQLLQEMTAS
Lymphokine-activated killer T-cell-originated protein kinase, sequence (Q96KB5 whole entry): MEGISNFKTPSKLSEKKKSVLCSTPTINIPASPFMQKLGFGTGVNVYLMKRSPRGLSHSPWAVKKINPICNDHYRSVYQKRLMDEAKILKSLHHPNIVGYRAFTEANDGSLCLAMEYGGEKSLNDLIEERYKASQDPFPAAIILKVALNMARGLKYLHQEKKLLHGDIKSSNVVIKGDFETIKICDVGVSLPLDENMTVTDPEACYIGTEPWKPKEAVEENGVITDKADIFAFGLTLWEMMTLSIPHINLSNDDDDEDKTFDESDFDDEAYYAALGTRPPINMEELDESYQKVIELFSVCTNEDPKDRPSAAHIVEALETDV
Caspase-7, sequence (P55210 24-198 limits assumed): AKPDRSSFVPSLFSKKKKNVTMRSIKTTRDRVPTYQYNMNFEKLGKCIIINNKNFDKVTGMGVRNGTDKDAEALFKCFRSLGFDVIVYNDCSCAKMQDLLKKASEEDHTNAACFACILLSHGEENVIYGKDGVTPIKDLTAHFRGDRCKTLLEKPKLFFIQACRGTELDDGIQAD
Caspase-7, sequence (P55210 207-303 limits assumed): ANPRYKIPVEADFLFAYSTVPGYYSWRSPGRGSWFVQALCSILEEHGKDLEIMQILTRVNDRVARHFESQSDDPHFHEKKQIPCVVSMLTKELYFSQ

SMILES: CCN(CC)CCCC(C)n1c2nc(=O)[nH]c(=O)c-2nc2cc(Cl)ccc21 (configuration not stated)
- AC50 (Caspase-7): 899 nM (active)
- IC50 (HEK293 [1]): > 89200 nM (inactive)
- EC50 (HEK293 [2]): > 54700 nM (inactive)

SMILES: OC1CCC(Nc2nc(Cl)cc(-c3c[nH]c4ncccc34)n2)CC1 (configuration not stated)
- Ki [3]: 200 nM (active)
- pKi [3]: 6.7
- Ki [4]: 39.8 nM (active)
- pKi [4]: 7.4
- Ki [5]: 100 nM (active)
- pKi [5]: 7
- Ki [6]: 63.1 nM (active)
- pKi [6]: 7.2
- Ki [7]: 2510 nM (active)
- pKi [7]: 5.6
- Ki [8]: 1000 nM (active)
- pKi [8]: 6
- Ki [9]: > 1260 nM (inactive)
- Ki [10]: 100 nM (active)
- pKi [10]: 7
- Ki [11]: 3160 nM (active)
- Ki [12]: 200 nM (active)
- pKi [12]: 6.7

SMILES: O=C(COC(=O)c1ccc([N+](=O)[O-])s1)Nc1ccc(F)cc1
- IC50 [13]: 6290 nM (active)
- IC50 (Caspase-3): 8430 nM (active)

SMILES: COc1cccc(CNC(=O)c2cnc(-c3ccncc3)nc2)c1
- Ki [14]: > 2000 nM (inactive)
- Ki [15]: > 2510 nM (inactive)
- Ki (LIM domain kinase 1): > 3160 nM (inactive)
- Ki [16]: > 3160 nM (inactive)

Reference: ChEMBL document CHEMBL1201862, “PubChem BioAssay data set” (2004)
